# According to the NIST ThermoML archive (doi:10.1016/j.jct.2009.05.018):
# ± gives the expanded uncertainty stated by the source.
# Experiment: molar enthalpy of vaporization or sublimation
# Settings: 298.15 K, Calvet microcalorimetry
molar enthalpy (Liquid) [kcal/mol],molar enthalpy (Crystal) [kcal/mol],Compound
14.9 ± 0.765,,Cn1ccc2ccccc21 [1-methylindole]
,21.2 ± 1.15,Cc1cc2ccccc2[nH]1 [2-methylindole]
,21.6 ± 0.908,Cc1c[nH]c2ccccc12 [3-methyl-1H-indole]
